The values that follow come from ChEMBL document CHEMBL3286122, “Structure-assisted discovery of the first non-retinoid ligands for Retinol-Binding Protein 4” (Bioorg Med Chem Lett, 2014).

Structures are written as SMILES. Active and inactive are the calls of the source. The rule behind the calls is not given here.

Data set [1] addresses T1, Retinol-binding protein 4 (Homo sapiens, UniProt P02753). As to the kind of experiment: Displacement of [3H]-retinol from human recombinant RBP4 by scintillation proximity assay.
Data set [2] addresses T1, Retinol-binding protein 4. Briefly: Inhibition of human recombinant RBP4-transthyretin interaction by FRET analysis.
Data set [3] concerns Liver microsome. As to the kind of experiment: Drug metabolism in rat liver microsomes assessed as hydrolysis into primary urea. The class given is ADME. (Microsomes from liver hold many membrane-bound enzymes, among them those of drug oxidation.)
Data set [4] deals with Liver microsome. As to the kind of experiment: Drug metabolism in human liver microsomes assessed as oxidation in pyridinyl piperazine region. The class given is ADME.
In data set [5] the test system is Liver microsome. Briefly: Drug metabolism in human liver microsomes assessed as hydrolysis primary urea. The class given is ADME.
Data set [6] in a line: Metabolic stability in rat liver microsomes assessed as compound remaining after 30 mins. The class given is ADME. The note with it: read-out: Stability.
Data set [7] has as its system Liver microsome. Briefly: Drug metabolism in rat liver microsomes assessed as oxidation in pyridinyl piperazine region. In kind it is ADME.
Data set [8] is filed under the species Mus musculus. Briefly: Reduction in RBP4 level in chow-fed B6D2F1 mouse after 4 hrs. In kind it is functional, organism-based.
The nature of data set [9]: AUC in mouse at 5 mg/kg, po. More on the design: dose 5 mg/kg, route oral. The settings on record: plasma. In kind it is ADME, organism-based.
The nature of data set [10]: Clearance in rat at 0.5 mg/kg, iv. The class given is ADME, organism-based. More on the design: dose 0.5 mg/kg, route intravenous. The settings on record: in vivo.
Data set [11] is described as follows: Volume of distribution at steady state in rat at 0.5 mg/kg, iv. The note with it: in vivo, read-out: Vdss. In kind it is ADME, organism-based. Set-up: dose 0.5 mg/kg, route intravenous.
A short description of data set [12]: Mean residence time in mouse at 5 mg/kg, po. The class given is ADME, organism-based. More on the design: dose 5 mg/kg, route oral. The settings on record: in vivo.
The nature of data set [13]: Cmax in mouse at 5 mg/kg, po. In kind it is ADME, organism-based. Set-up: dose 5 mg/kg, route oral. The settings on record: in vivo.
A short description of data set [14]: AUC in rat at 0.5 mg/kg, iv. In kind it is ADME, organism-based. More on the design: dose 0.5 mg/kg, route intravenous. The settings on record: plasma.
Data set [15] can be described thus: Mean residence time in rat at 0.5 mg/kg, iv. In kind it is ADME, organism-based. Set-up: dose 0.5 mg/kg, route intravenous. The settings on record: in vivo.
The species named for data set [16] is Mus musculus. Briefly: Reduction in retinol level in chow-fed B6D2F1 mouse after 4 hrs. The class given is functional, organism-based.
A short description of data set [17]: AUC in mouse at 30 mg/kg, po. The class given is ADME, organism-based. Set-up: dose 30 mg/kg, route oral. The settings on record: plasma.
The nature of data set [18]: Mean residence time in mouse at 30 mg/kg, po. In kind it is ADME, organism-based. More on the design: dose 30 mg/kg, route oral. The settings on record: in vivo.
The species entered for data set [19] is Mus musculus. Briefly: Reduction in retinol level in chow-fed B6D2F1 mouse at 5 uM after 4 hrs. The class given is functional, organism-based.
Data set [20] is described as follows: Cmax in mouse at 30 mg/kg, po. In kind it is ADME, organism-based. Set-up: dose 30 mg/kg, route oral. The settings on record: in vivo.
The species entered for data set [21] is Mus musculus. As to the kind of experiment: Reduction in RBP4 level in chow-fed B6D2F1 mouse at 5 uM after 4 hrs. The class given is functional, organism-based.

For the molecule `COc1ccc(Cl)cc1NC(=O)N1CCN(c2ccccc2Cl)CC1`, the half-maximal inhibitory concentration (IC50) in data set [1] turned out to be 0.89 µM; in [2] it was 1.3 µM.

Consider `Cn1cncc1C(=O)N1CCC(c2ccccc2C(F)(F)F)CC1`, for which the half-maximal inhibitory concentration (IC50) in data set [1] stood at 0.84 µM; in data set [2] it was 0.55 µM.

As to `COc1ccc(Cl)cc1NC(=O)C1CCN(c2ncccc2C(F)(F)F)CC1`, the concentration for half-maximal inhibition (IC50) in data set [1] turned out to be 1.1 µM.

With `COc1ccc(Cl)cc1NC(=O)N1CCN(c2ncccc2C(F)(F)F)CC1`, the Drug metabolism result in the data set with Liver microsome [3], with Liver microsome [4], in the data set on Liver microsome [5] and with Liver microsome [7] was “metabolite_detected” each time. Also, the remaining at 0.5 h in data set [6] is 1%. Moreover, the 50% inhibitory concentration (IC50) in [1] stood at 0.23 µM; in data set [2], 0.13 µM.

Consider `COc1ccc(Cl)cc1NC(=O)N1CCN(c2ncnc3sc4c(c23)CCC4)CC1`, for which the IC50 in [1] amounted to 0.36 µM; in data set [2], 0.6 µM.

As for `FC(F)(F)c1cccc(CN2CCN(c3ncnc4sc5c(c34)CCC5)CC2)c1`, the IC50 in data set [1] is 0.6 µM; in data set [2] it was 0.024 µM.

Regarding `FC(F)(F)c1ccnc(N2CCC(c3ccccc3C(F)(F)F)CC2)n1`, the IC50 amounted to 0.27 µM in [1] and 0.028 µM in [2].

`COc1ccc(Cl)cc1NC(=O)N1CCN(c2ccccc2Cl)C(=O)C1`: in data set [1], the IC50 is 3.6 µM.

Regarding `COc1ccc(Cl)cc1NC(=O)N1CCN(c2ccccc2C(F)(F)F)CC1`, the values for the IC50 in [1] and in [2] were 0.07 µM and 0.017 µM, respectively.

Regarding `O=C(c1cn(Cc2ccccc2)cn1)N1CCN(c2ccccc2Cl)CC1`, the IC50 in data set [1] came out at 0.44 µM.

Take `COC(=O)c1cccc(C(=O)N2CCC(c3ccccc3C(F)(F)F)CC2)c1`: the IC50 in [1] amounted to 0.83 µM; in data set [2], 0.6 µM.

Turning to `COc1ccc(Cl)cc1NC(=O)N1CCN(c2ccccn2)CC1`, the half-inhibitory concentration (IC50) in data set [1] and in data set [2] was > 30 µM in each case.

For the molecule `FC(F)(F)c1cccc(CN2CCN(c3ncccc3C(F)(F)F)CC2)c1`, the IC50 in data set [1] was > 30 µM; in data set [2], > 10 µM.

As for `COc1ccc(Cl)cc1NC(=O)N1CCCN(c2ncccc2C(F)(F)F)CC1`, the IC50 was 0.48 µM in [1] and 0.67 µM in data set [2].

On to `COc1ccc(Cl)cc1NC(=O)N1CCN(c2ncccc2C(F)(F)F)CC1C` (stereo unspecified), for which the IC50 in data set [1] stood at 0.45 µM; in [2], 0.35 µM.

As to `O=C(c1nccs1)N1CCC(c2ccccc2C(F)(F)F)CC1`, the IC50 was 0.051 µM in data set [1] and 0.003 µM in data set [2].

With `O=C(O)c1ccccc1NC(=O)N1CCC(c2ccccc2C(F)(F)F)CC1`, the Activity entry in the data set filed under Mus musculus [8] and in the data set listed under Mus musculus [16] was “Dose-dependent effect” each time. In addition, the EC50 in the data set filed under Mus musculus [8] (B6D2F1, 4 h) is 0.98 µM; in the data set filed under Mus musculus [16] (B6D2F1, 4 h) it was 1.1 µM. For the same molecule, the AUC in data set [9] stood at 17.2 µg·h/mL; in [14] it was 10.7 µg·h/mL. In [10], this molecule gave a clearance of 0.005 L/h/kg. The Drug metabolism entry with Liver microsome [4] and in the data set on Liver microsome [7] was “metabolite_notdetected” in each case. In addition, the Vd in data set [11] came to 0.045 L/kg. For the same molecule, the remaining at 0.5 h in data set [6] is > 90%. Moreover, the MRT in data set [12] was 5.4 h; in data set [15] it was 9.7 h. This molecule returned a Cmax in data set [13] of 2.95 µg/mL.

For the molecule `COc1ccc(Cl)cc1NC(=O)N1CCN(c2ncc(C(F)(F)F)cc2C(F)(F)F)CC1`, the IC50 in data set [1] worked out at 2.2 µM.

On to `COc1ccc(Cl)cc1NC(=O)N1CCN(c2ccccc2)CC1`, for which the half-maximal inhibitory concentration (IC50) in [1] is 30 µM.

As to `CC1=C(/C=C/C(C)=C/C=C/C(C)=C/C(=O)Nc2ccc(O)cc2)C(C)(C)CCC1` [FENRETINIDE], the values for the AUC in [17] and in data set [14] were 1.21 µg·h/mL and 1.66 µg·h/mL, respectively. Also, the clearance in data set [10] was 0.3 L/h/kg. Besides, the results for the MRT in [18] and in data set [15] were 35 h and 10.5 h, respectively. Besides, the outcome in the data set filed under Mus musculus [19] and in the data set filed under Mus musculus [21] was Active. Further, in data set [11], the Vd is 3.2 L/kg. Further, in [6], the remaining at 0.5 h was found to be 67%. This molecule also returned a maximum concentration (Cmax) in [20] of 0.065 µg/mL.

With `COC(=O)c1ccccc1NC(=O)N1CCC(c2ccccc2C(F)(F)F)CC1`, the concentration for half-maximal inhibition (IC50) turned out to be 0.091 µM in data set [1] and 0.018 µM in [2].

For the molecule `O=C(O)c1ccccc1NC(=O)N1CCN(c2ncccc2C(F)(F)F)CC1`, the AUC in data set [9] was 3.65 µg·h/mL; in data set [14], 5.08 µg·h/mL. Also, the clearance in data set [10] was 0.1 L/h/kg. Also, the Drug metabolism result in the data set with Liver microsome [3] and in the data set on Liver microsome [5] was “metabolite_notdetected” throughout. Moreover, the Vd in data set [11] amounted to 0.26 L/kg. For the same molecule, the remaining at 0.5 h in [6] is 51%. The mean residence time MRT in [12] was 3.2 h; in [15] it was 2.6 h. The molecule also returned a Cmax in data set [13] of 1 µg/mL.

As to `COc1ccc(Cl)cc1NC(=O)N1CCN(CCc2ccccc2)CC1`, the IC50 in data set [1] and in data set [2] was > 30 µM each time.

`O=C(Cc1ccccc1C(F)(F)F)N1CCN(c2ncnc3sc4c(c23)CCC4)CC1`: the concentration for half-maximal inhibition (IC50) was found to be 0.28 µM in data set [1] and 0.06 µM in data set [2].

Take `O=C(c1cc(C(F)(F)F)[nH]n1)N1CCC(c2ccccc2C(F)(F)F)CC1`: the concentration for half-maximal inhibition (IC50) worked out at 0.24 µM in data set [1] and 0.12 µM in data set [2].

Take `COc1ccc(Cl)cc1NC(=O)N1CCC(c2ccccc2C(F)(F)F)CC1`: the IC50 amounted to 0.16 µM in [1] and 0.023 µM in data set [2].

On to `O=C(c1cnccc1C(F)(F)F)N1CCC(c2ccccc2C(F)(F)F)CC1`, for which the values for the IC50 in [1] and in [2] were 0.13 µM and 0.076 µM, respectively.

`O=C(Cc1ccccc1C(F)(F)F)N1CCN(c2ncccc2C(F)(F)F)CC1`: the half-inhibitory concentration (IC50) is 3.61 µM in data set [1] and > 10 µM in data set [2].

`O=C(c1ccco1)N1CCC(c2ccccc2C(F)(F)F)CC1`: the IC50 in data set [1] is 0.12 µM; in data set [2], 0.052 µM.

Take `COc1ccc(Cl)cc1NC(=O)N1CCN(C)CC1`: in data set [1], the IC50 was > 30 µM.

In the case of `O=C(c1cccc(C(F)(F)F)c1)N1CCC(c2ccccc2C(F)(F)F)CC1`, the IC50 in data set [1] amounted to 0.92 µM; in [2], 2.7 µM.

On to `COc1ccc(Cl)cc1NC(=O)N1CCN(Cc2c(Cl)cccc2Cl)CC1`, for which the half-inhibitory concentration (IC50) in data set [1] amounted to 4.5 µM; in data set [2] it was 7.5 µM.

Turning to `COc1ccc(Cl)cc1NC(=O)N1CCN(c2ncccc2Cl)CC1`, the half-maximal inhibitory concentration (IC50) in data set [1] is 2.5 µM.

As for `COc1ccc(Cl)cc1C(=O)N1CCN(c2ncnc3sc4c(c23)CCC4)C(C)C1` (stereo unspecified), the IC50 turned out to be 0.83 µM in data set [1] and 1.48 µM in data set [2].

Take `Cn1cnc(C(=O)N2CCC(c3ccccc3C(F)(F)F)CC2)c1`: the IC50 in [1] turned out to be 0.11 µM; in data set [2] it was 0.017 µM.

For orientation: IC50 means the concentration needed to halve the response being measured. A word on the EC50: it is the midpoint of the concentration-response curve. What is called AUC is the area under the concentration-time curve, a measure of exposure. As a reminder, the clearance is a measure of how efficiently the substance is removed, as volume per time. Broadly, the MRT is a mean duration of stay, worked out from the concentration-time curve. For orientation: Cmax means the maximum level reached in the sampled fluid or tissue.
